Reference: the supplement of paper PMC10307832

Tests used:
Experiment in all cases: relative viability (nuclei count vs DMSO), 5 days (fraction); higher = more cells survive
[1] = compound: COc1cc2nc(N3CCCN(C)CC3)nc(NC3CCN(Cc4ccccc4)CC3)c2cc1OC
In short: (§1)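 Five library-drug doses, separated by factors of √10, were pinned into 1536-well plates holding lung cancer cell lines after an overnight stay at 37 °C. Cells were fixed, permeabilised and Hoechst-stained in one step after 5 days without medium change, then imaged at 4×. Viability compares treated-well with vehicle-well nuclei, counted in MetaXpress, as a median across plates. Passing plates had control CV below 25% and at least one doubling.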

[2] = compound: Cc1cc([C@@H](C)Nc2ccccc2C(=O)O)c2nc(N3CCOCC3)cc(=O)n2c1 [AZD6482]
In short: as §1

[3] = compound: COc1cc2nc(N3CCCN(C)CC3)nc(NC3CCN(Cc4ccccc4)CC3)c2cc1OC + Nc1ncn([C@H]2C[C@H](O)[C@@H](CO)O2)c(=O)n1 [Decitabine] (partner 2 µM)
In short: (§2)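 Relative viability divides the nuclei count in treated wells by that in vehicle wells. Lung cancer cell lines were seeded in 1536-well plates, dosed by pin tool the next day, and fixed and stained after 5 days in one step with final 0.05% Triton X-100, 1% formaldehyde and 1 ug/ml Hoechst. Dosing was a single drug or a fixed anchor-drug dose plus five library-drug doses (not always all listed) in √10 steps, and values are medians of duplicate plates imaged at 4×.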

[4] = compound: COc1cc2nc(N3CCCN(C)CC3)nc(NC3CCN(Cc4ccccc4)CC3)c2cc1OC + O=C(CCCCCCC(=O)Nc1ccccc1)NO [Vorinostat] (partner 1 µM)
In short: as §2

Cell Line UMC-11 has a relative viability ([1]; 0.2 µM) of 0.998, a relative viability ([1]; 0.6325 µM) of 0.973 and a relative viability ([1]; 2 µM) of 1.06. The relative viability ([1]; 6.325 µM) was 0.932, the relative viability ([2]; 0.08 µM) was 0.949 and the relative viability ([2]; 0.253 µM) was 0.94. The relative viability ([2]; 0.8 µM) was 1.01, the relative viability ([2]; 2.53 µM) was 0.736 and the relative viability ([2]; 8 µM) was 1.22. For the same cell line, the relative viability ([3]; first compound 0.2 µM) was 0.598, the relative viability ([3]; first compound 0.6325 µM) was 0.577 and the relative viability ([3]; first compound 2 µM) was 0.597. It also gave a relative viability ([3]; first compound 6.325 µM) of 0.451, a relative viability ([4]; first compound 0.2 µM) of 0.361 and a relative viability ([4]; first compound 0.6325 µM) of 0.453. For the same cell line, the relative viability ([4]; first compound 2 µM) was 0.431 and the relative viability ([4]; first compound 6.325 µM) was 0.317.
